“And” between values parts separate entries of the source, which are not always exact repeats. Equal values may be shown once.

Data set [1] has as its system HSF (skin fibroblast). In words: Proliferation assay (CellTiter 96), HSF cells. It is filed as cell-based, human. Particulars: pH 6.5, 44 h, cis-UCA 10 mM, CPT 2 μM, 15,000 cells per 100 μl. The text has this: (§1) Transformed tumour cell lines WM 266-4 and A2058 (cutaneous melanoma), HT-1080 (epithelial fibrosarcoma), HeLa (epithelial adenocarcinoma of cervix), HK293 (kidney epithelial cells) and non-transformed cell line HSF (skin fibroblast from a healthy volunteer donor) of human origin have been described earlier (Li et al. 2003). The K562 (chronic myelogenous leukemia) cells were purchased from American Type Culture Collection.
(§2) The cells were maintained in logarithmic growth phase in IMDM medium (Invitrogen, Paisley, UK) supplemented with 10% fetal calf serum and antibiotics in a humidified incubator at +37° C., 5% CO2. The adherent cells lines were harvested for experiments with 0.25% trypsin-EDTA in PBS for 5 min and then resuspended and washed in medium. After counting of viable cells, 15,000 to 75,000 cells were transferred into flat-bottom 96-well cell culture plates in a volume of 100 or 150 μl.
(§3) The proliferation activity of cultured cell lines was quantified in flat-bottom 96-well plates with a modified colorimetric assay based on a tetrazolium derivative (CellTiter 96 Aqueous One Solution Cell Proliferation Assay, Promega). The cells were cultured in the presence of camptothecin and/or cis-UCA for 20 to 92 h, then the proliferation reagent was added for 2 h, and the absorbance at 490 nm was measured in a plate reader. […]

Data set [2] concerns A2058 (cutaneous melanoma). In words: Proliferation assay (CellTiter 96), A2058 cells. Type of data set: cell-based, human. The protocol: The cells were cultured in triplicate with or without 2 μM camptothecin (CPT) or 10 mM cis-UCA in a density of 15,000 cells per […]. A, Cells taken from normal pH 7.4 cultures to test conditions at pH 6.5. B, Cells cultured in low pH 6.7 adaptation medium for 3 d, then tested at pH 6.5. C, Cells cultured and tested at pH 7.4.
Proliferation was measured in a 44-h assay at pH 6.5 with 30 μM to 30 mM cis-UCA and 2 μM camptothecin. Both proliferation (A) and calculated percentage inhibition data (B) are presented.
as §1, §2
The proliferation activity of cultured cell lines was quantified in flat-bottom 96-well plates with a modified colorimetric assay based on a tetrazolium derivative (CellTiter 96 Aqueous One Solution Cell Proliferation Assay, Promega). The cells were cultured in the presence of camptothecin and/or cis-UCA for 20 to 92 h, then the proliferation reagent was added for 2 h, and the absorbance at 490 nm was measured in a plate reader. Blank absorption values in wells containing medium without cells were subtracted before comparison analysis.
The cell lines were tested in a 44-h culture at pH 6.5 with or without 2 μM camptothecin and 10 mM cis-UCA at 15,000 cells per 100 μl total volume. […] In order to further characterise the effective anti-proliferative concentration range of cis-UCA, proliferation was measured in a 44-h assay at pH 6.5 with cis-UCA concentration ranging from 30 μM to 30 mM.

Data set [3] concerns HeLa (epithelial adenocarcinoma of cervix). As to the kind of experiment: Proliferation assay (CellTiter 96), HeLa cells. It is filed as cell-based, human. Conditions: pH 6.5, 44 h, cis-UCA 10 mM, CPT 2 μM, 15,000 cells per 100 μl.
From the text: as §1, §2, §3

Data set [4] deals with K562 (chronic myelogenous leukemia). As to the kind of experiment: Proliferation assay (CellTiter 96), K562 cells. Type of data set: cell-based, human. Conditions: pH 6.5, 44 h, cis-UCA 10 mM, CPT 2 μM, 15,000 cells per 100 μl.
From the text: as §1, §2, §3

Data set [5] relates to HT-1080 (epithelial fibrosarcoma). In words: Proliferation assay (CellTiter 96), HT-1080 cells. It is filed as cell-based, human. Particulars: pH 6.5, 44 h, cis-UCA 10 mM, CPT 2 μM, 15,000 cells per 100 μl.
From the text: as §1, §2, §3

Data set [6] relates to A2058 human cutaneous melanoma tumours. In words: Tumour growth in SCID/SCID mice in vivo. Conditions: 16-day treatment, intratumoural 30 mM cis-UCA, 1 μM CPT, pH 6.5. The protocol: All injection solutions were adjusted to pH 6.5. The data points have been normalised to unity tumour size at day 0. Data from five mice in each group is included (mean, SD).
The A2058 human cutaneous melanoma cells were cultured under normal cell culture conditions prior to injection into mice. Two million A2058 cells were injected s.c. into the neck of SCID/SCID mice (Charles River Laboratories, Germany). Tumours were allowed to develop for two weeks to the size of a small pearl before the treatments. The mice were divided into four groups of six animals, each containing three males and three females. Each tumour was first injected 50 μl of one of the test solutions (A: PBS; B: 30 mM cis-UCA; C: 1 μM CPT; D: 30 mM cis-UCA+1 μM CPT) three times a week (Mon-Wed-Fri). After day 7 from the beginning of injections, the injection volume was increased to 150 μl injected into three different sides of the tumour. Tumour length and width were measured with a caliper three times a week before each injection. Tumour planar area was calculated as length×width. The tumour growth inhibition efficiency I of the treatments was calculated according to Equation 1:
[formula] where Sr represents the normalised relative size of the tumour in the control group (A) or any of the treatment groups (T), and d0 to d16 are the (eight) measuring time points during the 16-day treatment period.
(§4) After 16 days from the first injection, all the animals were sacrificed with CO2, and the tumours were collected and fixed in formalin for further studies. In groups A, C, and D, one mouse was sacrificed before the end of the experiment because of poor development of the tumour (no measurable tumour at day 0). One animal in group B was sacrificed prematurely after it had severly scratched the tumour. Data from these animals were not included in the calculation of the tumour size results. All the removed animals were female mice. Immunohistochemical data was obtained also from the removed mice except from group B. The experiments were conducted under a protocol approved by the local ethics committee.

For data set [7], the system named is Ki67 (proliferating cells) in A2058 tumours. As to the kind of experiment: Immunohistochemistry of tumours, Ki67 staining. It is filed as in vivo, SCID/SCID mice. Particulars: tumours collected after 16 days; 30 mM cis-UCA, 1 μM CPT intratumoural.
From the text: as §4
Paraffin sections of the tumours were stained with haematoxylin/eosin following standard procedures for an overall picture. Ki67 was stained to detect the amount of proliferating cells. The staining procedure for the Ki67 primary antibody (Dako, Klostrup, Denmark) at 1:50 dilution and secondary antibody (StreptABComplex/HRP Duet Mouse/Rabbit, Dako) at 1:100 dilution followed the instructions provided by the manufacturer. Two sections from each tumour was examined.

For data set [8] the following is noted: cited from earlier work.
Data set [9] deals with human polymorphonuclear neutrophils. Conditions: extracellular pH range 6.1 to 7.0; patent application US2006035973; cited from earlier work.

Turning to `O=C(O)/C=C\c1c[nH]cn1` [cis-UCA, cis-urocanic acid], the “Inhibition of proliferation (mean percentage inhibition ± SD compared with untreated control)” value was 41 ± 1.1% in data set [1]; 45 ± 4.4% in data set [2] (pH 6.5, 44 h, cis-UCA 10 mM, CPT 2 μM, 15,000 cells per 100 μl); 50 ± 1.7% in data set [3]; 26 ± 2.9% in data set [4]; 47 ± 0.5% in data set [5]. Also, the “percentage inhibition of proliferation” value in data set [2] (10 mM cis-UCA alone, cells from pH 7.4 cultures tested at pH 6.5, 92 h (FIG. 2A)) amounted to 83%; in data set [2] (10 mM cis-UCA, cells adapted to pH 6.7 for 3 days, tested at pH 6.5, 92 h (FIG. 2B)), 87%. For the same compound, the “concentration required to produce measurable inhibition of proliferation” value in data set [2] (44-h assay at pH 6.5, 30 μM to 30 mM tested (FIG. 3)) is “at least 3 mM”. For the same compound, in data set [6] (female mice), the “Growth suppression, female” value is given as 72.0%. Besides, the “Growth suppression, male” value in data set [6] (male mice) is listed as 55.9%. Besides, in data set [7], the “Ki67+ (number of positive tumours/total analysed)” value is “none of the analysed five tumours and 0/5”. Also, the “second pKa (imidazolyl group)” value in data set [8] (Roberts et al. 1982, Krien & Kermici 2000) is reported as 7.0. In addition, the “first pKa (carboxyl group)” value in data set [8] (Roberts et al. 1982) is reported as 3.3. Besides, in [9], the “effect on the intracellular pH of neutrophils” value was “affected the intracellular pH”.
